Tests used:
Assay type in all cases: in vitro ADME
Settings in all cases: 5 μM, equilibrium dialysis 4 hours at 37° C.
plasma protein [1] = assay: Plasma protein binding rate test by equilibrium dialysis method, mouse plasma
Description: (§1) Plasma protein binding rates of the compounds were determined by equilibrium dialysis method (W. Lindner et al, J. Chromatography, 1996, 677, 1-28). Each test compound was dissolved in distilled water at concentration of 200 μM. The solution was added to the plasma of mouse, dog, rabbit, monkey and human respectively, at the amount to obtain the final concentration of 5 μM. This solution (300 μL) and PBS solution (500 μL) were added to each dialysis cell of equilibrium dialysis unit RED device (Pierce Biotechnology), and the cells were shaken at 100 rpm at 37° C. After 4 hours, samples of plasma and the buffer were collected, and the fluorescence intensity of each was measured by EnVision ([…]). After the concentrations were calculated from a calibration curve, the concentrations (%) of free test compound in plasma were determined.

plasma protein [2] = assay: Plasma protein binding rate test by equilibrium dialysis method, rabbit plasma
Description: as §1

plasma protein [3] = assay: Plasma protein binding rate test by equilibrium dialysis method, dog plasma
Description: as §1

plasma protein [4] = assay: Plasma protein binding rate test by equilibrium dialysis method, monkey plasma
Description: as §1

plasma protein [5] = assay: Plasma protein binding rate test by equilibrium dialysis method, human plasma
Description: as §1

| Plasma protein binding rate (%) mouse (plasma protein [1]) [%] | Plasma protein binding rate (%) rabbit (plasma protein [2]) [%] | Plasma protein binding rate (%) dog (plasma protein [3]) [%] | Plasma protein binding rate (%) monkey (plasma protein [4]) [%] | Plasma protein binding rate (%) human (plasma protein [5]) [%] | SMILES |
| --- | --- | --- | --- | --- | --- |
| 57 | 67 | 50 | 71 | 74 | CC1(C)C(/C=C/C=C/C=C/C=C2\N(CC(=O)O)c3ccc(S(=O)(=O)[O-])cc3C2(C)C)=[N+](CC(=O)O)c2ccc(S(=O)(=O)[O-])cc21.[Na+] [Compound 4] |
|  | 88 | 59 | 79 | 88 | CC1(C)C(/C=C/C=C/C=C/C=C2/N(CCCCC(=O)O)c3ccc(S(=O)(=O)O)cc3C2(C)C)=[N+](CCCCC(=O)O)c2ccc(S(=O)(=O)O)cc21.[Na+].[Na+] [Compound 6] |
| 46 | 61 | 50 | 67 | 56 | CC1(C)C(=CC=CC=CC=CC2=[N+](CCP(=O)([O-])[O-])c3ccc(S(=O)(=O)[O-])cc3C2(C)C)N(CCP(=O)([O-])[O-])c2ccc(S(=O)(=O)[O-])cc21.[Na+].[Na+].[Na+].[Na+].[Na+] [Compound 9] |
| 53 |  | 52 |  |  | CC1(C)C(/C=C/C=C/C=C/C=C2/N(CCCP(=O)(O)O)c3ccc(S(=O)(=O)O)cc3C2(C)C)=[N+](CCCP(=O)(O)O)c2ccc(S(=O)(=O)O)cc21.[Na+].[Na+].[Na+].[Na+].[Na+].[Na+] [Compound 10] |
| 91 | 98 | 83 | 97 | 98 | CC1(C)C(/C=C/C=C(/C=C/C=C2\N(CCP(=O)([O-])[O-])c3ccc(S(=O)(=O)[O-])cc3C2(C)C)c2ccccc2)=[N+](CCP(=O)([O-])[O-])c2ccc(S(=O)(=O)[O-])cc21.[Na+].[Na+].[Na+].[Na+].[Na+] [Compound 11] |
| 91 | 95 | 82 | 93 | 95 | CC1(C)C(/C=C/C=C(/C=C/C=C2\N(CCCP(=O)([O-])[O-])c3ccc(S(=O)(=O)[O-])cc3C2(C)C)c2ccccc2)=[N+](CCCP(=O)([O-])[O-])c2ccc(S(=O)(=O)[O-])cc21.[Na+].[Na+].[Na+].[Na+].[Na+] [Compound 12] |
|  | 87 |  | 90 | 89 | CC1(C)C(/C=C/C=C/C=C/C=C2/N(CCC(=O)[O-])c3ccc(P(=O)([O-])[O-])cc3C2(C)C)=[N+](CCC(=O)[O-])c2ccc(P(=O)([O-])[O-])cc21.[Na+].[Na+].[Na+].[Na+].[Na+] [Compound 13] |
|  | 87 | 71 | 95 | 94 | CC1(C)C(/C=C/C=C/C=C/C=C2/N(CCS(=O)(=O)[O-])c3ccc(P(=O)([O-])[O-])cc3C2(C)C)=[N+](CCS(=O)(=O)[O-])c2ccc(P(=O)([O-])[O-])cc21.[Na+].[Na+].[Na+].[Na+].[Na+] [Compound 14] |
|  | 94 |  | 96 | 93 | CC1(C)C(/C=C/C=C(/C=C/C=C2\N(CCS(=O)(=O)[O-])c3ccc(P(=O)([O-])[O-])cc3C2(C)C)c2ccccc2)=[N+](CCS(=O)(=O)[O-])c2ccc(P(=O)([O-])[O-])cc21.[Na+].[Na+].[Na+].[Na+].[Na+] [Compound 15] |
| 77 | 95 | 77 | 92 | 95 | CC1(C)C(/C=C/C=C(/C=C/C=C2\N(CCC(=O)[O-])c3ccc(P(=O)([O-])[O-])cc3C2(C)C)c2ccccc2)=[N+](CCC(=O)[O-])c2ccc(P(=O)([O-])[O-])cc21.[Na+].[Na+].[Na+].[Na+].[Na+] [Compound 16] |
| 63 | 79 | 59 | 91 | 93 | CC(/C=C/C=C1\N(CCC(=O)[O-])c2ccc(P(=O)([O-])[O-])cc2C1(C)C)=C\C=C\C1=[N+](CCC(=O)[O-])c2ccc(P(=O)([O-])[O-])cc2C1(C)C.[Na+].[Na+].[Na+].[Na+].[Na+] [Compound 17] |
| 59 | 82 |  | 95 | 96 | CC(/C=C/C=C1\N(CCS(=O)(=O)[O-])c2ccc(P(=O)([O-])[O-])cc2C1(C)C)=C\C=C\C1=[N+](CCS(=O)(=O)[O-])c2ccc(P(=O)([O-])[O-])cc2C1(C)C.[Na+].[Na+].[Na+].[Na+].[Na+] [Compound 18] |
| 27 | 79 | 29 | 87 | 82 | CC1(C)C(/C=C/C=C/C=C/C=C2\N(CCS(=O)(=O)[O-])c3ccc(S(=O)(=O)[O-])cc3C2(C)C)=[N+](CCS(=O)(=O)[O-])c2ccc(S(=O)(=O)[O-])cc21.[Na+].[Na+].[Na+] [Compound A, reference compound] |
|  | 88 |  | 93 | 92 | CC(/C=C/C=C1\N(CCS(=O)(=O)[O-])c2ccc(S(=O)(=O)[O-])cc2C1(C)C)=C\C=C\C1=[N+](CCS(=O)(=O)[O-])c2ccc(S(=O)(=O)[O-])cc2C1(C)C.[Na+].[Na+].[Na+] [Compound B, reference compound] |

Source: patent US20110054188A1, “NEAR INFRARED FLUORESCENT IMAGING AGENT” (FUJIFILM Corporation, priority 2009, published 2011)
